Assay [1] has as its target T1, B1R receptor of the rat (Rattus norvegicus, UniProt P97583).
T1 construct: host or cells: CHO K1 cells (Chinese hamster ovary), stably transfected
T1 sequence (P97583 1-337): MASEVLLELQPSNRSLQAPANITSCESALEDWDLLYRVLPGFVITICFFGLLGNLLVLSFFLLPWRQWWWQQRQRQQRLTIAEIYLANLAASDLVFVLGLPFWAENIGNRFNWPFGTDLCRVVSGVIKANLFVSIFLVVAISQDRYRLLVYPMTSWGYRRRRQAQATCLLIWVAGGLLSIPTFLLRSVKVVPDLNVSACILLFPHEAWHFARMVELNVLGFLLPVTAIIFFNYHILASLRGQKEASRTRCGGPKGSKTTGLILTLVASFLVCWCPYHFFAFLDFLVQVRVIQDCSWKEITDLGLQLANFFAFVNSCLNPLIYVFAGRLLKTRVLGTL
Briefly: Functional study on the bradykinin receptor 1 (B1R), FLIPR Ca2+ assay, rB1R cells. In kind it is cell-based. Conditions: agonist Des-Arg9-bradykinin 100 nM, % inhibition compared with the maximum achievable inhibition; for B1R Antagonism, rat [10 μM] % Inhibition: test substance 10 μM, rB1R CHO K1 cells; for inhibition at 10 µM: CHO-K1, test substance 10 μM, read-out: B1R Antagonism, rat [10 μM] % Inhibition. An outline of the steps: (§1)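 Readout: peak Fluo-4 Ca2+ fluorescence, FLIPR. Stable CHO K1 hB1R or rB1R cells; cpd 10 μM, 10 min preincubation, then agonist (hB1R: Lys-Des-Arg9-BK 0.5 nM; rB1R: Des-Arg9-BK 100 nM). Value = % inhibition relative to maximal achievable inhibition.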

The target of assay [2] is T2, human B1R receptor (Homo sapiens, UniProt P46663).
T2 construct: host or cells: CHO K1 cells (Chinese hamster ovary), stably transfected
T2 sequence (P46663 1-353): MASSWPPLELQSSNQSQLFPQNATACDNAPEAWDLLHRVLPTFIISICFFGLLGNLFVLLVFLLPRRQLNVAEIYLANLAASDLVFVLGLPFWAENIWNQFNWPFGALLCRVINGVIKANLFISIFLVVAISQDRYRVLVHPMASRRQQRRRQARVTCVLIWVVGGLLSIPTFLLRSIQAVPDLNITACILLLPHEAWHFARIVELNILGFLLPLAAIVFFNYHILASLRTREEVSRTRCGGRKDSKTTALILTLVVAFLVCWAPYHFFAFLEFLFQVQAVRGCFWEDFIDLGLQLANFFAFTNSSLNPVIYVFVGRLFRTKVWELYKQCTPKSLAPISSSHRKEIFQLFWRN
Description: Functional study on the bradykinin receptor 1 (B1R), FLIPR Ca2+ assay, hB1R cells. The format is cell-based. Conditions: agonist Lys-Des-Arg9-bradykinin 0.5 nM, % inhibition compared with the maximum achievable inhibition; for B1R Antagonism, human [10 μM] % Inhibition: test substance 10 μM, hB1R CHO K1 cells; for inhibition at 10 µM: CHO-K1, test substance 10 μM, read-out: B1R Antagonism, human [10 μM] % Inhibition. A digest of the protocol:
as §1

Usually inhibition stands for the relative decrease from the control value, in per cent.

SMILES strings stand for the structures.

For `CN(C)C1CCN(C(=O)COCCC2CCCCN2S(=O)(=O)c2cccc3ccccc23)C1` (stereo not shown) [Example 66, 1-(3-dimethylamino-pyrrolidin-1-yl)-2-[1-(naphthyl-1-sulfonyl)-piperidin-2-ylethoxy]-ethanone], in assay [1], the “B1R Antagonism, rat [10 μM] % Inhibition” value worked out at 38.64%. In addition, the “B1R Antagonism, human [10 μM] % Inhibition” value in assay [2] is 55.38%.

With `Cc1cc(C)c(S(=O)(=O)N2Cc3ccccc3CC2COCC(=O)N2CCCN(Cc3ccccc3)CC2)c(C)c1` (stereo not shown) [Example 67, 1-(4-benzyl-[1,4]diazepan-1-yl)-2-[2-(2,4,6-trimethyl-phenylsulfonyl)-1,2,3,4-tetrahydro-isoquinolin-3-ylmethoxy]-ethanone], the results for the inhibition at 10 µM in assay [1] and in assay [2] were 80.5% and 55%, respectively.

Consider `O=C(COCC1CCCCN1S(=O)(=O)c1ccc(Cl)c(Cl)c1)N1CCN(CC2CCCCC2)CC1` (stereo not shown) [Example 68, 1-(4-cyclohexylmethyl-piperazin-1-yl)-2-[1-(3,4-dichloro-phenylsulfonyl)-piperidin-2-ylmethoxy]-ethanone], for which the inhibition at 10 µM in assay [1] is 0%; in assay [2] it was 54.1%.

Turning to `COc1ccc(S(=O)(=O)N2Cc3ccccc3CC2COCC(=O)N2CCC(CCN3CCCCC3)CC2)cc1` (stereo not shown) [Example 69], in assay [1], the “B1R Antagonism, rat [10 μM] % Inhibition” value is given as 82.89%. Further, the “B1R Antagonism, human [10 μM] % Inhibition” value in assay [2] turned out to be 53.64%.

Take `O=C(COCC1CCCCN1S(=O)(=O)c1ccc(Cl)c(Cl)c1)NCC1CCCN(Cc2ccccc2)C1` (stereo not shown) [Example 70, N-(1-benzyl-piperidin-3-ylmethyl)-2-[1-(3,4-dichloro-phenylsulfonyl)-piperidin-2-yl-methoxy]-acetamide]: the inhibition at 10 µM in assay [1] came to 42.2%; in assay [2], 53.3%.

Regarding `O=C(COCC1CCCN1S(=O)(=O)c1c(Cl)cc(Cl)cc1Cl)NCc1ccc(N2CCCCC2)cc1` (stereo not shown) [Example 71, N-(4-piperidin-1-yl-benzyl)-2-[1-(2,4,6-trichloro-phenylsulfonyl)-pyrrolidin-2-yl-methoxy]-acetamide], the inhibition at 10 µM is 95.2% in assay [1] and 53.2% in assay [2].

Consider `O=C(COCC1CCCN1S(=O)(=O)c1ccc(Cl)c(Cl)c1)N1CCN(CCN2CCCCC2)CC1` (stereo not shown) [Example 72, 2-((1-(3,4-dichlorophenylsulfonyl)pyrrolidin-2-yl)methoxy)-1-(4-(2-(piperidin-1-yl)-ethyl)piperazin-1-yl)ethanone], for which the inhibition at 10 µM in assay [1] worked out at 13.2%; in assay [2], 52.6%.

On to `CN(C)Cc1ccc(CNC(=O)COCC2CCCN2S(=O)(=O)c2c(Cl)cc(Cl)cc2Cl)cc1` (stereo not shown) [Example 73, N-(4-dimethylaminomethyl-benzyl)-2-[1-(2,4,6-trichloro-phenylsulfonyl)-pyrrolidin-2-ylmethoxy]-acetamide], for which the inhibition at 10 µM was determined as 106% in assay [1] and 51% in assay [2].

Regarding `O=C(COCC1CCCCN1S(=O)(=O)c1c(Cl)cc(Cl)cc1Cl)NCc1ccc(N2CCCCC2)cc1` (stereo not shown) [Example 74, N-(4-piperidin-1-yl-benzyl)-2-[1-(2,4,6-trichloro-phenylsulfonyl)-piperidin-2-yl-methoxy]-acetamide], the results for the inhibition at 10 µM in assay [1] and in assay [2] were 103% and 50.4%, respectively.

In the case of `Cc1cc(C)c(S(=O)(=O)N2Cc3ccccc3CC2COCC(=O)NCc2ccccc2N2CCN(C)CC2)c(C)c1` (stereo not shown) [Example 75, N-[2-(4-methyl-piperazin-1-yl)-benzyl]-2-[2-(2,4,6-trimethyl-phenylsulfonyl)-1,2,3,4-tetrahydro-isoquinolin-3-ylmethoxy]-acetamide], the inhibition at 10 µM in assay [1] amounted to 9.11%; in assay [2] it was 50.1%.

Regarding `Cc1cc(C)c(S(=O)(=O)N2CCCCC2COCC(=O)Nc2cccc(CN3CCCCC3)c2)c(C)c1` (stereo not shown) [Example 76, N-(3-piperidin-1-ylmethyl-phenyl)-2-[1-(2,4,6-trimethyl-phenylsulfonyl)-piperidin-2-ylmethoxy]-acetamide], the inhibition at 10 µM worked out at 40.3% in assay [1] and 48.9% in assay [2].

These data come from patent publication US8435978B2, “Substituted sulfonamide compounds” (Gruenenthal GmbH, priority 2006, dated 2013).
